Source: patent publication US20240246980A1, “MODULATORS OF MAS-RELATED G-PROTEIN RECEPTOR D AND RELATED PRODUCTS AND METHODS” (Escient Pharmaceuticals, Inc., priority 2022, published 2024)

What follows are molecules tested against human MRGPRD (Homo sapiens, UniProt Q8TDS7) (assay: MRGPRD antagonist activity, IP-One HTRF assay in CHO cells stably expressing human MRGPRD (versus 100 μM β-Alanine agonist)).
Type: cell-based
Description: Chinese Hamster Ovary (CHO) cells stably expressing human MRGPRD (Eurofins, San Diego CA) were plated in a 384-well plate at 20,000 cells per well in 12 μL of Optimem (Fisher Scientific 11-058-021). Plates were kept in the incubator at 37° C. overnight. Antagonists were solubilized at a concentration of 10 mM in DMSO, and the agonists were solubilized to stock concentrations of either 50 mM in H2O (β-Alanine) or 10 mM in DMSO (all others) and then diluted in assay buffer (final concentrations of 5.7 mM Tris-HCl, 43 mM NaCl, 50 mM LiCl, pH=8). The concentration of DMSO was normalized across the plate. Antagonists were added to the plate using a Tecan D300 Digital Dispenser at nanoliter/picoliter volumes and 2 μL of agonists in assay buffer were added to each well for a final assay volume of 14 μL. Plates were covered and incubated for 1 h at 37° C. and then for 1 h at room temperature. IP-1 standards and HTRF detection reagents were added according to an IP-One-Gq Kit purchased from Cisbio (part number 62IPAPEJ) and incubated in the dark for 1 h at room temperature. Assay plates were read on either a Molecular Devices SpectraMax iD5 plate reader or a BMG ClarioStar plate reader. The HTRF ratio was calculated form the raw data and graphed using GraphPad Prism to calculate IC50 values. Data are expressed as average IC50 values and average percent antagonism calculated as a percent of the maximum efficacy response. For these studies, the variability of the data was assessed by determining the standard error of mean (SEM).
The activity ranges are denoted as follows: “+++++” denotes antagonist activity <100 nM; “++++” denotes antagonist activity between 100 and 500 nM; “+++” denotes activity between 500 and 1000 nM; “++” denotes activity between 1000 and 3000 nM; and “+” denotes activity >3000 nM.

Sequence of human MRGPRD (Q8TDS7 whole entry): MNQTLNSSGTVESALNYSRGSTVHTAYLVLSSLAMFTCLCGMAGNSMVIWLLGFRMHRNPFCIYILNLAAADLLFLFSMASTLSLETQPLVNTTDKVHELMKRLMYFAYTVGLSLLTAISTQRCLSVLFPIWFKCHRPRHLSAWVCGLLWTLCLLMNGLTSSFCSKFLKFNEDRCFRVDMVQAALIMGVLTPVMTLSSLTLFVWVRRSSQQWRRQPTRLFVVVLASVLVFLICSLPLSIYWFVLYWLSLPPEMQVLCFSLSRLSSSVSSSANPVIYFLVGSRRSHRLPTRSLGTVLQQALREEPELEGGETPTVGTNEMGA

Structure (SMILES)	IC50 [nM]
COc1cccc(-c2nc([C@@H]3CCCN(C(=O)Nc4ccccc4)C3)n3ccccc23)c1 [Compound 3-27]	< 100
COc1cccc(-c2nc(C3CCCN(C(=O)Nc4ccccc4F)C3)n3ccccc23)c1 (stereo not shown) [Compound 3-28]	100 to 500
COc1cccc(-c2nc([C@H]3CCCN(C(=O)Nc4ccccc4)C3)n3ccccc23)c1 [Compound 3-29]	1000 to 3000
COc1cccc(-c2nc(C3CCCN(C(=O)Nc4ccc(OC)c(OC)c4)C3)n3ccccc23)c1 (stereo not shown) [Compound 4-1]	100 to 500
COc1cccc(-c2nc(C3CCCN(C(=O)Nc4cc(OC)c(OC)c(OC)c4)C3)n3ccccc23)c1 (stereo not shown) [Compound 4-2, 3-(1-(3-methoxyphenyl)imidazo[1,5-a]pyridin-3-yl)-N-(3,4,5-trimethoxyphenyl)piperidine-1-carboxamide]	< 100
COc1cccc(-c2nc(C3CCCN(C(=O)Nc4ccccc4N(C)C)C3)n3ccccc23)c1 (stereo not shown) [Compound 4-3]	500 to 1000
COc1cccc(-c2nc(C3CCCN(C(=O)Nc4ccc(C#N)cc4)C3)n3ccccc23)c1 (stereo not shown) [Compound 4-4]	500 to 1000
COc1cccc(-c2nc(C3CCCN(C(=O)N(C)c4ccccc4)C3)n3ccccc23)c1 (stereo not shown) [Compound 5-1]	1000 to 3000
COc1cccc(-c2nc(C3CCCN(C(=O)N(C)c4ccc(F)cc4)C3)n3ccccc23)c1 (stereo not shown) [Compound 5-2]	1000 to 3000
COc1cccc(-c2nc(C3CCCN(C(=O)Nc4ccc(C)cc4F)C3)n3ccccc23)c1 (stereo not shown) [Compound 5-3]	500 to 1000
COc1cccc(-c2nc(C3CCCN(C(=O)Nc4ccc(C)cc4C)C3)n3ccccc23)c1 (stereo not shown) [Compound 5-4]	100 to 500
COc1cccc(-c2nc(C3CCCN(C(=O)Nc4ccc(C)cc4C)C3)n3ccccc23)c1 (stereo not shown) [Compound 5-5, N-(2,4-dimethylphenyl)-3-(1-(3-methoxyphenyl)imidazo[1,5-a]pyridin-3-yl)piperidine-1-carboxamide]	100 to 500
COc1cccc(-c2nn(C3CCCN(C(=O)Nc4ccc(N(C)C)cc4)C3)c3ccccc23)c1 (stereo not shown) [Compound 5-6]	< 100
COc1cccc(-c2nc([C@@H]3CCCN(C(=O)Nc4ccc(CO)cc4)C3)n3ccccc23)c1 [Compound 5-7]	< 100
COc1cccc(-c2nc(C3CCN(C(=O)Nc4cccc(N(C)C)c4)CC3)n3ccccc23)c1 [Compound 5-8]	1000 to 3000
COc1cccc(-c2nc(C3CCN(C(=O)Nc4ccc(N(C)C)cc4)CC3)n3ccccc23)c1 [Compound 5-9]	> 3000
COc1cccc(-c2nc([C@@H]3CCCN(C(=O)Nc4ccc(F)cc4)C3)n3ccccc23)c1 [Compound 5-10]	100 to 500
COc1cccc(-c2nc([C@@H]3CCCN(C(=O)Nc4ccccc4OC)C3)n3ccccc23)c1 [Compound 5-11]	100 to 500
COc1cccc(-c2nc([C@@H]3CCCN(C(=O)Nc4ccccc4F)C3)n3ccccc23)c1 [Compound 5-12]	< 100
COc1cccc(-c2nc([C@@H]3CCCN(C(=O)Nc4ccccc4OC(F)(F)F)C3)n3ccccc23)c1 [Compound 5-13]	500 to 1000
CCOc1ccccc1NC(=O)N1CCC[C@@H](c2nc(-c3cccc(OC)c3)c3ccccn23)C1 [Compound 5-14]	100 to 500

Structure (SMILES)	IC50 [nM]
COc1cccc(-c2nc([C@@H]3CCCN(C(=O)Nc4cccc(C(C)=O)c4)C3)n3ccccc23)c1 [Compound 5-15]	< 100
COc1cccc(-c2nc([C@@H]3CCCN(C(=O)Nc4ccc(-n5cccn5)cc4)C3)n3ccccc23)c1 [Compound 5-16]	< 100
COc1cccc(-c2nc([C@@H]3CCCN(C(=O)NCc4ccc(N(C)C)cc4)C3)n3ccccc23)c1 [Compound 5-17]	< 100
COc1cccc(-c2nc([C@@H]3CCCN(C(=O)Nc4cccc(C(=O)N(C)C)c4)C3)n3ccccc23)c1 [Compound 5-18]	< 100
COc1cccc(-c2nc(C3CCCN(C(=O)Nc4cccc(N(C)C)c4)C3)n3ncccc23)c1 (stereo not shown) [Compound 5-19]	< 100
COc1cccc(-c2nc(C3CCCN(C(=O)Nc4ccc(N(C)C)cc4)C3)n3ncccc23)c1 (stereo not shown) [Compound 5-20]	< 100
COc1cccc(-c2nc([C@@H]3CCCN(C(=O)Nc4ccc(OC(F)(F)F)cc4)C3)n3ccccc23)c1 [Compound 5-21]	500 to 1000
COc1cccc(-c2nc([C@@H]3CCCN(C(=O)Nc4ccc(-c5ccccc5)cc4)C3)n3ccccc23)c1 [Compound 5-22]	1000 to 3000
COc1cccc(-c2nc([C@@H]3CCCN(C(=O)Nc4ccc(C(F)(F)F)cc4)C3)n3ccccc23)c1 [Compound 5-23]	500 to 1000
COc1cccc(-c2nc([C@@H]3CCCN(C(=O)Nc4ccc(C(C)=O)cc4)C3)n3ccccc23)c1 [Compound 5-24]	< 100
COc1cccc(-c2nc([C@@H]3CCCN(C(=O)Nc4ccc(C)cc4C)C3)n3ccccc23)c1 [Compound 5-25]	< 100
COc1cccc(-c2nc([C@@H]3CCCN(C(=O)Nc4cccc5c4CCC5)C3)n3ccccc23)c1 [Compound 5-26]	100 to 500
COc1cccc(-c2nc([C@@H]3CCCN(C(=O)Nc4ccc5c(c4)OCO5)C3)n3ccccc23)c1 [Compound 5-27]	< 100
COc1cccc(-c2nc([C@@H]3CCCN(C(=O)Nc4ccccc4CO)C3)n3ccccc23)c1 [Compound 5-28]	< 100
COc1cccc(-c2nc([C@@H]3CCCN(C(=O)NCCc4nc(C)cs4)C3)n3ccccc23)c1 [Compound 5-30]	100 to 500
COc1cccc(-c2nc([C@@H]3CCCN(C(=O)Nc4cccc(CN(C)C)c4)C3)n3ccccc23)c1 [Compound 5-31]	100 to 500
COc1cccc(-c2nc([C@@H]3CCCN(C(=O)Nc4ccc5c(c4)CCC5)C3)n3ccccc23)c1 [Compound 5-32]	100 to 500
COc1cccc(-c2nc([C@@H]3CCCN(C(=O)Nc4ccccc4C(=O)N(C)C)C3)n3ccccc23)c1 [Compound 5-33]	1000 to 3000
COc1cccc(-c2nc([C@@H]3CCCN(C(=O)Nc4ccccc4C(C)=O)C3)n3ccccc23)c1 [Compound 5-34]	1000 to 3000
COc1cccc(-c2nc([C@@H]3CCCN(C(=O)Nc4cccc5c4OCO5)C3)n3ccccc23)c1 [Compound 5-35]	< 100
COc1cccc(-c2nc([C@@H]3CCCN(C(=O)Nc4cccc(N(C)C)c4)C3)n3ccccc23)c1 [Compound 5-36]	100 to 500

Structure (SMILES)	IC50 [nM]
COc1cccc(-c2nc([C@@H]3CCCN(C(=O)Nc4ccccc4N(C)C)C3)n3ccccc23)c1 [Compound 5-37]	100 to 500
COc1cccc(-c2nc([C@@H]3CCCN(C(=O)NC4CCc5ccccc5C4)C3)n3ccccc23)c1 (stereo partly shown) [Compound 5-38]	100 to 500
COc1cccc(-c2nc([C@@H]3CCCN(C(=O)Nc4cccc5ccccc45)C3)n3ccccc23)c1 [Compound 5-39]	100 to 500
COc1cccc(-c2nc([C@@H]3CCCN(C(=O)Nc4ccc5cccnc5c4)C3)n3ccccc23)c1 [Compound 5-40]	< 100
COCCNC(=O)N1CCC[C@@H](c2nc(-c3cccc(OC)c3)c3ccccn23)C1 [Compound 5-41]	100 to 500
COc1cccc(-c2nc([C@@H]3CCCN(C(=O)Nc4ccc5nc(C(C)(C)C)[nH]c5c4)C3)n3ccccc23)c1 [Compound 5-42]	< 100
COc1cccc(-c2nc([C@@H]3CCCN(C(=O)NC4CCCCC4)C3)n3ccccc23)c1 [Compound 5-43]	100 to 500
COc1cccc(-c2nc([C@@H]3CCCN(C(=O)Nc4ccn(C)n4)C3)n3ccccc23)c1 [Compound 5-44]	< 100
COc1cccc(-c2nc([C@@H]3CCCN(C(=O)NCc4nccs4)C3)n3ccccc23)c1 [Compound 5-45]	< 100
COc1cccc(-c2nc([C@@H]3CCCN(C(=O)NCCN4CCCCC4)C3)n3ccccc23)c1 [Compound 5-46]	500 to 1000
COc1cccc(-c2nc([C@@H]3CCCN(C(=O)Nc4ccc5c(c4)CCC(C)(C)O5)C3)n3ccccc23)c1 [Compound 5-47]	< 100
COc1cccc(-c2nc([C@@H]3CCCN(C(=O)NC4CCS(=O)(=O)CC4)C3)n3ccccc23)c1 [Compound 5-48]	100 to 500
CCOCn1cc(NC(=O)N2CCC[C@@H](c3nc(-c4cccc(OC)c4)c4ccccn34)C2)cn1 [Compound 5-49]	< 100
COc1cccc(-c2nc([C@@H]3CCCN(C(=O)Nc4onc(C)c4C)C3)n3ccccc23)c1 [Compound 5-50]	< 100
COc1cccc(-c2nc([C@@H]3CCCN(C(=O)Nc4ccc5c(c4)ncn5C)C3)n3ccccc23)c1 [Compound 5-51]	< 100
COc1cccc(-c2nc([C@@H]3CCCN(C(=O)NCCS(C)(=O)=O)C3)n3ccccc23)c1 [Compound 5-52]	100 to 500
COc1cccc(-c2nc([C@@H]3CCCN(C(=O)Nc4ccc5c(c4)CN(C)C5)C3)n3ccccc23)c1 [Compound 5-53]	< 100
CCc1csc(NC(=O)N2CCC[C@@H](c3nc(-c4cccc(OC)c4)c4ccccn34)C2)n1 [Compound 5-54]	500 to 1000
COc1cccc(-c2nc([C@@H]3CCCN(C(=O)NC4(c5ccccc5)CC4)C3)n3ccccc23)c1 [Compound 5-55]	< 100
